In patent publication US11780893B2, “Kv1.3 blockers” (Zealand Pharma A/S, priority 2019, dated 2023):
Read-outs that look alike come from different tables or passages of the source. Bridge positions count the residues as written; N and C are the ends. Square brackets hold non-standard residues; d marks the D form. Peptide text beside a SMILES is read from it. Nle = CCCC[C@H](N)C(=O)O

Assays:
[1] = target: T1, human Kv1.3 voltage-gated K+ channel (Homo sapiens, UniProt P22001); experiment: cell-based
T1 construct: host or cells: CHO-DUKX
T1 sequence (P22001 whole entry): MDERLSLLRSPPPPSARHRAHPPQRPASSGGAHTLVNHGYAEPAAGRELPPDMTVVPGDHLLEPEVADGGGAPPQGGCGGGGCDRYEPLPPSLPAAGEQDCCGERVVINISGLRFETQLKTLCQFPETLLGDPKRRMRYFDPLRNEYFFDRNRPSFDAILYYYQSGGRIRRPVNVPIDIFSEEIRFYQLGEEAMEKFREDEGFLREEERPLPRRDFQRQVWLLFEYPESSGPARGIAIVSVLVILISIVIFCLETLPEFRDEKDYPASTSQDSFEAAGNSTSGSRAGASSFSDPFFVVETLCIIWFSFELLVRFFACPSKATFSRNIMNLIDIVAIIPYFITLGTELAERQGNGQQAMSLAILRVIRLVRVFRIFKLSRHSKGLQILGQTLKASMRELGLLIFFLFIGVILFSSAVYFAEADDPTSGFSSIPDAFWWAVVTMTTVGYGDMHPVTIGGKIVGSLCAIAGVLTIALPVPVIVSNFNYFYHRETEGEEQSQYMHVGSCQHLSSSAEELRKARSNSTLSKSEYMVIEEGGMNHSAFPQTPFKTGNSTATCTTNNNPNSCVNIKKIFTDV

Kv1.2 = target: T2, Kv1.2 (Homo sapiens, UniProt P16389); experiment: cell-based
T2 construct: expressed in transfected cells; host or cells: Chinese Hamster Ovary (CHO)
T2 sequence (P16389 whole entry): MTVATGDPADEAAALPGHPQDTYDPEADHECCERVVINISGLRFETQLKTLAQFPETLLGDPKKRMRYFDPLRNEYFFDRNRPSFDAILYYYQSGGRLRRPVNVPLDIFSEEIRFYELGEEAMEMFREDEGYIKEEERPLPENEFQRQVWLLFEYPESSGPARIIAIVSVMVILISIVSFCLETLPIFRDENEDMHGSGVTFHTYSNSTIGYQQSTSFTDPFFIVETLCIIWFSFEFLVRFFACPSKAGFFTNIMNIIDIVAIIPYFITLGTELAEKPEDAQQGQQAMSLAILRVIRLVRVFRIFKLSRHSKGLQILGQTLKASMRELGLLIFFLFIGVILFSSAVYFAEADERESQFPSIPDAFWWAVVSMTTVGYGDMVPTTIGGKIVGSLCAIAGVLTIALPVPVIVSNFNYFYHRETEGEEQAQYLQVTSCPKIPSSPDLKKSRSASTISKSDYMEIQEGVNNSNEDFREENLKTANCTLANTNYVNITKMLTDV

[2] = system: Human peripheral blood mononuclear cells (PBMCs); experiment: IL-2 release from anti-CD3 stimulated human PBMCs (Example 4a); format: cell-based
Procedure: Human peripheral blood mononuclear cells (PBMCs) were used to assess the effects of Kv1.3 blockers on T-cell activation as determined by IL-2 (cytokine) release after stimulation with anti-CD3.
Human PBMCs were obtained from Precision for Medicine (Frederick, Md.). Cells from 5 donors were used. Plate-bound anti-CD3 was used to stimulate bulk T cells in the PBMC preparations. Briefly, 96-well plates were coated with anti-CD3 antibody for 2 hrs at 37° C., using 50 μL of a 0.5 μg/mL anti-CD3 solution diluted in 1×PBS. Thereafter the plates were washed twice.
Finally, 1×10^5 PBMCs were added to each well in a volume of 100 μL, giving a final volume of 200 μL per well. The plates were incubated for 20-24 hours in a 37° C./5% CO2 incubator. After centrifugation of the plates, 25 μl supernatant was transferred to IL-2 detection plates (MSD Human IL-2 Tissue Culture Kit, cat #K151AHB-2) and IL-2 was measures as described by the manufacturer (Meso Scale Discovery, Rockville, Md., USA).
Results are shown in Table 4a as geometric mean of IC50 values obtained from anti-CD3 stimulated human PBMC assays. All values derive from at least 4 replicates.

Kv1.1 = target: T3, Kv1.1 (Homo sapiens, UniProt Q09470); experiment: cell-based; settings: for Selectivity Kv1.1/Kv1.3: ratio IC50[Kv1.1]/IC50[Kv1.3]
T3 construct: expressed in transfected cells; host or cells: Chinese Hamster Ovary (CHO)
T3 sequence (Q09470 whole entry): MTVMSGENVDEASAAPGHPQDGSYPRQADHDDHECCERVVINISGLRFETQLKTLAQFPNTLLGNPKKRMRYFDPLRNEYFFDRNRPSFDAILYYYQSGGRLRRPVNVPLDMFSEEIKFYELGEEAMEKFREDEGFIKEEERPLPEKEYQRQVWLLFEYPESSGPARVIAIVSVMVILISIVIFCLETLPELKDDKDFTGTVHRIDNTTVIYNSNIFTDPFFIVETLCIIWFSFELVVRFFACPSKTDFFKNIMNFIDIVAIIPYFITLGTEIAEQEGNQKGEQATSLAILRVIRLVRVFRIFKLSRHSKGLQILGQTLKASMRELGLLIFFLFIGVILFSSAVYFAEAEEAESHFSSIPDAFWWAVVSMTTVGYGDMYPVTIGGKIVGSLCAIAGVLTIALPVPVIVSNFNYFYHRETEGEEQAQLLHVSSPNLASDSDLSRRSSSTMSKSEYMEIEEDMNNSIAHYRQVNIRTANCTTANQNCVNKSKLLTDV

Kv1.3 = target: T4, Kv1.3 (Homo sapiens, UniProt P22001); experiment: cell-based
T4 construct: expressed in transfected cells; host or cells: Chinese Hamster Ovary (CHO)
T4 sequence (P22001 whole entry): as the sequence (P22001 whole entry) above

Kv1.6 = target: T5, Kv1.6 (Homo sapiens, UniProt P17658); experiment: cell-based; settings: for Selectivity Kv1.6/Kv1.3: ratio IC50[Kv1.6]/IC50[Kv1.3]
T5 construct: expressed in transfected cells; host or cells: Chinese Hamster Ovary (CHO)
T5 sequence (P17658 whole entry): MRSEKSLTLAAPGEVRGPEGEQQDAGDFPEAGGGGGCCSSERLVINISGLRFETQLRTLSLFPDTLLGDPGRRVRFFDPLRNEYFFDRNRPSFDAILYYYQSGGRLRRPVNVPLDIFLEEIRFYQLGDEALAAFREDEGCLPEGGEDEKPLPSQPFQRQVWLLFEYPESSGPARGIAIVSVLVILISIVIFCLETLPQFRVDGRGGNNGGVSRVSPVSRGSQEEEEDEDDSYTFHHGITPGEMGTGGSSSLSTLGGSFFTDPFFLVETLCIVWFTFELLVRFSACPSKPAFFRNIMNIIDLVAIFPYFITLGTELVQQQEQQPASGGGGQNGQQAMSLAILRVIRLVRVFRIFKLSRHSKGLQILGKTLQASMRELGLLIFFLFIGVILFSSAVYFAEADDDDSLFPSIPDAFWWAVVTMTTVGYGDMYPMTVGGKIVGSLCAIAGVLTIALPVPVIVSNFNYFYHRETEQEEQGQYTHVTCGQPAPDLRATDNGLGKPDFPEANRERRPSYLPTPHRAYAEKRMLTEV

[3] = system: delayed-type hypersensitivity (DTH) ear swelling response; format: in vivo, rat
in vivo = settings: male, rat, sc, 70 nmol/kg
Rat whole blood = Rat whole blood (Rattus norvegicus, UniProt P15384)
Rat whole blood, sequence (P15384 whole entry): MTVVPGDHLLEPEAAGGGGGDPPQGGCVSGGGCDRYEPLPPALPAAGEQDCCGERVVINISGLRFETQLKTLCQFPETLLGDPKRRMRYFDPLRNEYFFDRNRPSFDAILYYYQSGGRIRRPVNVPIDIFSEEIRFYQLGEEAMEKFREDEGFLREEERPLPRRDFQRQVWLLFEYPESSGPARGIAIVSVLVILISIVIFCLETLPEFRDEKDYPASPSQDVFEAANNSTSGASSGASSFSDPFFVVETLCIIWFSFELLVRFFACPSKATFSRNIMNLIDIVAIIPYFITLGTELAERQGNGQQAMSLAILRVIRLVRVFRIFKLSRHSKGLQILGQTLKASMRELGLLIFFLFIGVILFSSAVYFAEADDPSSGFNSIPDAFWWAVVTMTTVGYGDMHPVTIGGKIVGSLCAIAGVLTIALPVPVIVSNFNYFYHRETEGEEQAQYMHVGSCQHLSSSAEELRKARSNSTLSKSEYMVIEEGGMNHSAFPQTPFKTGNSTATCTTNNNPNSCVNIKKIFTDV

[4] = inhibition of thallium flux, CHO-DUKX cells with human Kv1.3, read-out: IC50
[5] = CHO cells, whole-cell patch clamp, read-out: Potency IC50 (nM) Kv1.2
[6] = CHO cells, whole-cell patch clamp, read-out: Potency IC50 (nM) Kv1.1
[7] = CHO cells, whole-cell patch clamp, read-out: Potency IC50 (nM) Kv1.3
[8] = CHO cells, whole-cell patch clamp, read-out: Potency IC50 (nM) Kv1.6

Row | SMILES | IC50 [1, 4] | IC50 (Kv1.2; [5]) | IC50 (Kv1.1; [6]) | Selectivity Kv1.1/Kv1.3 (Kv1.1) | IC50 (Kv1.3; [7]) | IC50 (Kv1.6; [8]) | Selectivity Kv1.6/Kv1.3 (Kv1.6) | AUC(0-inf) (in vivo) | Cmax (in vivo) | half-life (in vivo) | IC50 (Rat whole blood) | further results
1 | CCCC[C@@H]1NC(=O)[C@@H]2CSSC[C@H](NC(=O)[C@H](CCCNC(=N)N)NC(=O)[C@H](CCSC)NC(=O)[C@H](CC(=O)O)NC(=O)[C@H](CCSC)NC(=O)[C@@H](N)CC(N)=O)C(=O)N[C@@H](CO)C(=O)N[C@@H](C)C(=O)N[C@@H](CO)C(=O)N[C@@H](C(C)C)C(=O)N[C@@H](CCC(=O)O)C(=O)N[C@H]3CSSC[C@H](NC(=O)[C@H](CCCCN)NC(=O)[C@H](CCCCN)NC(=O)[C@H](CC(N)=O)NC1=O)C(=O)N[C@@H](CCCCN)C(=O)N[C@H](C(=O)N[C@@H](Cc1ccc(O)cc1)C(=O)N1CCC[C@H]1C(=O)N[C@@H](CCCNC(=N)N)C(N)=O)CSSC[C@H](NC(=O)[C@H](CCCCN)NC(=O)[C@H](CCC(N)=O)NC(=O)[C@H](CCCCN)NC3=O)C(=O)N[C@@H](CC(C)C)C(=O)N[C@@H](CCCCN)C(=O)N[C@@H](C)C(=O)N[C@@H]([C@@H](C)CC)C(=O)NCC(=O)N[C@@H](CO)C(=O)N[C@@H]([C@@H](C)CC)C(=O)N[C@@H](Cc1ccccc1)C(=O)NCC(=O)N[C@@H](CCCCN)C(=O)N2 [Compound 16] (H-NMDMRCSASVECKQKCLKAIGSIFGKC[Nle]NKKCKCYPR-NH2; disulfide 6-27, 12-32, 16-34) | 0.14 nM | 133 nM | > 3000 nM | >12600 | 0.24 nM | 2460 nM | – | – | – | – | – | IC50 ([2]; geometric mean, at least 4 replicates, read-out: anti-CD3 PBMC/IL-2 IC50): 0.05 nM
2 | CC[C@H](C)[C@@H]1NC(=O)[C@H](C)NC(=O)[C@H](C)NC(=O)[C@H](CC(C)C)NC(=O)[C@@H]2CSSC[C@@H](C(=O)N[C@@H](Cc3ccc(O)cc3)C(=O)N3CCC[C@H]3C(=O)N[C@@H](CCCNC(=N)N)C(N)=O)NC(=O)[C@H](CCCCN)NC(=O)[C@@H]3CSSC[C@H](NC(=O)[C@H](CCC(=O)O)NC(=O)[C@H](C(C)C)NC(=O)[C@H](CO)NC(=O)[C@H](C)NC(=O)[C@H](CO)NC(=O)[C@@H](NC(=O)[C@H](CCCNC(=N)N)NC(=O)[C@H](CCSC)NC(=O)[C@H](CC(=O)O)NC(=O)[C@H](CCSC)NC(=O)[C@@H](N)CC(N)=O)CSSC[C@H](NC(=O)[C@H](CCCCN)NC(=O)CNC(=O)[C@H](Cc4ccccc4)NC(=O)[C@H]([C@@H](C)CC)NC(=O)[C@H](CO)NC(=O)CNC1=O)C(=O)N[C@@H](CCSC)C(=O)N[C@@H](CC(N)=O)C(=O)N[C@@H](CCCCN)C(=O)N[C@@H](CCCCN)C(=O)N3)C(=O)N[C@@H](CCCCN)C(=O)N[C@@H](CCC(N)=O)C(=O)N[C@@H](CCCCN)C(=O)N2 [Compound 52] (H-NMDMRCSASVECKQKCLAAIGSIFGKCMNKKCKCYPR-NH2; disulfide 6-27, 12-32, 16-34) | 0.11 nM | 88 nM | > 3000 nM | >27500 | 0.11 nM | > 3000 nM | >27500 | 0.0485 µM·h | 31.2 nM | 53.4 min | ≤ 1 nM | % inhibition of ear thickness (AUC of Δ ear thickness 0-48 hours) ([3]; Exp #4, Kv1.3 blocker 100 nmol/kg SC 24 hrs prior to KLH challenge, CsA 10 mg/kg per os, +/- SD): 25.1%
3 | CC[C@H](C)[C@H](N)C(=O)N[C@@H](CC(N)=O)C(=O)N[C@H](C(=O)N[C@@H](CCCCN)C(=O)N[C@H]1CSSC[C@@H]2NC(=O)[C@H](CCCCN)NC(=O)CNC(=O)[C@H](Cc3ccccc3)NC(=O)[C@H](CCCNC(=N)N)NC(=O)[C@H](CCSC)NC(=O)CNC(=O)[C@H](C)NC(=O)[C@H](CC(=O)O)NC(=O)[C@H](CCCCN)NC(=O)[C@@H]3CSSC[C@@H](C(=O)N[C@@H](Cc4ccc(O)cc4)C(=O)N[C@@H](CO)C(=O)O)NC(=O)[C@H](CCCNC(=N)N)NC(=O)[C@H](CSSC[C@H](NC(=O)[C@H](CCC(N)=O)NC(=O)[C@H](CCC(N)=O)NC(=O)[C@@H]4CCCN4C(=O)[C@H](CC(C)C)NC(=O)[C@H](CO)NC1=O)C(=O)N[C@@H]([C@@H](C)CC)C(=O)N[C@@H](CCCCN)C(=O)N1CCC[C@H]1C(=O)N3)NC(=O)[C@H](CCCCN)NC(=O)[C@H](CCCCN)NC(=O)[C@H](CC(N)=O)NC(=O)[C@H](CCSC)NC2=O)C(C)C [Moka1, reference compound] | – | – | – | – | – | – | – | – | – | – | – | IC50 of Moka1 relative to IC50 of test compounds and ShK186 (IL-2 secretion) ([2]; test compound IC50 lower than that of Moka1): 10-100 fold
4 | CCCC[C@@H]1NC(=O)[C@@H]2CSSC[C@H](NC(=O)[C@H](CCCNC(=N)N)NC(=O)[C@H](CCCC)NC(=O)[C@H](CCC(=O)O)NC(=O)[C@@H](NC(=O)[C@@H]3CCCN3)[C@@H](C)CC)C(=O)N[C@@H](CO)C(=O)N[C@@H](C)C(=O)N[C@@H](CO)C(=O)N[C@@H](C(C)C)C(=O)N[C@@H](CCC(=O)O)C(=O)N[C@H]3CSSC[C@H](NC(=O)[C@H](CCCCN)NC(=O)[C@H](CCCCN)NC(=O)[C@H](CC(N)=O)NC1=O)C(=O)N[C@@H](CCCCN)C(=O)N[C@H](C(=O)N[C@@H](Cc1ccc(O)cc1)C(=O)N1CCC[C@H]1C(=O)N[C@@H](CCCNC(=N)N)C(=O)O)CSSC[C@H](NC(=O)[C@H](CCCCN)NC(=O)[C@H](CCC(N)=O)NC(=O)[C@H](CCCCN)NC3=O)C(=O)N[C@@H](CC(C)C)C(=O)N[C@@H](C)C(=O)N[C@@H](C)C(=O)N[C@@H]([C@@H](C)CC)C(=O)NCC(=O)N[C@@H](CO)C(=O)N[C@@H]([C@@H](C)CC)C(=O)N[C@@H](Cc1ccccc1)C(=O)NCC(=O)N[C@@H](CCCCN)C(=O)N2 [Compound 101] (H-PIE[Nle]RCSASVECKQKCLAAIGSIFGKC[Nle]NKKCKCYPR-OH; disulfide 6-27, 12-32, 16-34) | – | – | – | – | – | – | – | 0.132 µM·h | 58.6 nM | 54.6 min | ≤ 1 nM | IC50 [1]: 0.18 nM; % inhibition of ear thickness (AUC of Δ ear thickness 0-48 hours) ([3]; rat, in vivo): 44.5%; IC50 (Kv1.2): 1970 nM; IC50 (Kv1.1): > 3000 nM; IC50 (Kv1.3): 0.35 nM; IC50 (Kv1.6): > 3000 nM
5 | CCCC[C@H](NC(=O)[C@@H]1CCCN1)C(=O)N[C@@H](CCC(=O)O)C(=O)N[C@@H](CCCC)C(=O)N[C@@H](CCCNC(=N)N)C(=O)N[C@H]1CSSC[C@@H]2NC(=O)[C@H](CCCCN)NC(=O)CNC(=O)[C@H](Cc3ccccc3)NC(=O)[C@H]([C@@H](C)CC)NC(=O)[C@H](CO)NC(=O)CNC(=O)[C@H]([C@@H](C)CC)NC(=O)[C@H](C)NC(=O)[C@H](C)NC(=O)[C@H](CC(C)C)NC(=O)[C@@H]3CSSC[C@@H](C(=O)N[C@@H](Cc4ccc(O)cc4)C(=O)N4CCC[C@H]4C(=O)N[C@@H](CCCNC(=N)N)C(=O)O)NC(=O)[C@H](CCCCN)NC(=O)[C@H](CSSC[C@H](NC(=O)[C@H](CCC(=O)O)NC(=O)[C@H](C(C)C)NC(=O)[C@H](CO)NC(=O)[C@H](C)NC(=O)[C@H](CO)NC1=O)C(=O)N[C@@H](CCCCN)C(=O)N[C@@H](CCC(N)=O)C(=O)N[C@@H](CCCCN)C(=O)N3)NC(=O)[C@H](CCCCN)NC(=O)[C@H](CCCCN)NC(=O)[C@H](CC(N)=O)NC(=O)[C@H](CCCC)NC2=O [Compound 97] (H-P[Nle]E[Nle]RCSASVECKQKCLAAIGSIFGKC[Nle]NKKCKCYPR-OH; disulfide 6-27, 12-32, 16-34) | 0.15 nM | 1120 nM | > 3000 nM | >9100 | 0.33 nM | > 3000 nM | >9100 | 0.112 µM·h | 52.6 nM | 62.4 min | ≤ 1 nM | % inhibition of ear thickness (AUC of Δ ear thickness 0-48 hours) ([3]; Exp #6, Kv1.3 blocker 100 nmol/kg SC 24 hrs prior to KLH challenge, CsA 10 mg/kg per os): 42.5%; % inhibition of ear thickness (AUC of Δ ear thickness 0-48 hours) ([3]; Exp #8, Kv1.3 blocker 100 nmol/kg SC 24 hrs prior to KLH challenge, CsA 10 mg/kg per os): 37.7%
